According to US10561704B2, “Compositions and methods for treating neuropsychiatric disorders using an endothelin-B receptor agonist” (MIDWESTERN UNIVERSITY, priority 2013, dated 2020):
Marks after values point to notes of the source that are not given here. *1 amine or outer side, *2 acyl side, *3 side chain or, on linkers, in order; H or OH if unused. Where no end group is shown, it is not given here. Suc = O=C(CCC(=O)[*:2])[*:1]

Key:
[1] = tested on: middle cerebral artery occluded rats; assay: Angiogenesis and neurogenesis markers (ETB, NeuN, BrdU, VEGF, NGF) following cerebral ischemia; assay type: in vivo
Procedure: FIG. 16: Effect of ETB receptor agonist, IRL-1620 (three doses of 5 μg/kg, i.v., at 2, 4 and 6 h post ischemia), and antagonist, BQ788 (1 mg/kg, i.v.), on neuronal nuclei (NeuN) post middle cerebral artery occlusion. (A) Representative image of the cortex of an IRL-1620-treated animal 1 week following MCAO, stained for the ETB receptor (green) and NeuN (red). Scale bar=100 μm. (B) Representative image of the striatum of an IRL-1620-treated animal 1 week following MCAO, stained for the ETB receptor (green) and NeuN (red). Scale bar=10 μm. (C) Number of neuronal nuclei per 100 μm^2 in the cortex, striatum, and subventricular zone of middle cerebral artery occluded rats at 24 h after infarct. *P<0.05 vs. sham. ^#P<0.01 vs. MCAO+vehicle. ^@P<0.0001 vs. MCAO+IRL-1620. (D) Number of neuronal nuclei per 100 μm^2 in the cortex, striatum, and subventricular zone of middle cerebral artery occluded rats at 1 week after infarct. Values are expressed as mean±SEM (n=5/group). *P<0.0001 vs. sham. ^#P<0.0001 vs. MCAO+vehicle. ^@P<0.0001 vs. MCAO+IRL-1620.
FIG. 17: Effect of ETB receptor agonist, IRL-1620 (3 doses of 5 μg/kg, i.v., at 2, 4 and 6 hours post ischemia), and antagonist, BQ788 (1 mg/kg, i.v.), on proliferating cells post middle cerebral artery occlusion. Representative image of the cortex of an IRL-1620-treated animal 1 week following MCAO depicting a cerebral blood vessel, stained for the ETB receptor (green) and BrdU (red). Scale bar=100 μm. […] Values are expressed as mean±SEM (n=5/group). *P<0.01 vs. sham. #P<0.0001 vs. MCAO+vehicle. @P<0.0001 vs. MCAO+IRL-1620.
FIG. 19: Effect of ETB receptor agonist, IRL-1620 (3 doses of 5 μg/kg, i.v., at 2, 4 and 6 hours post ischemia), and antagonist, BQ788 (1 mg/kg, i.v.), on vascular endothelial growth factor (VEGF) post middle cerebral artery occlusion. […] Values are expressed as mean±SEM (n=5/group). *P<0.01 vs. sham. #P<0.01 vs. MCAO+vehicle. @P<0.05 vs. MCAO+IRL-1620.
FIG. 21: Effect of ETB receptor agonist, IRL-1620 (3 doses of 5 μg/kg, i.v., at 2, 4 and 6 hours post ischemia), and antagonist, BQ788 (1 mg/kg, i.v.), on nerve growth factor (NGF) post middle cerebral artery occlusion. A. Representative image of the cortex of an IRL-1620-treated animal 1 week following MCAO, stained for the ETB receptor (green) and NGF (red). Scale bar=10 μm. B. Number of NGF+cells per 100 μm^2 in the cortex, striatum, and subventricular zone of middle cerebral artery occluded rats at 1 week after infarct. Values are expressed as mean±SEM (n=5/group). #P<0.0001 vs. MCAO+vehicle. @P<0.0001 vs. MCAO+IRL-1620.
Effect of IRL-1620 on angiogenesis and neurogenesis following cerebral ischemia in rats: Angiogenesis and neurogenesis are the driving forces for the neurovascular remodeling that is essential post-stroke to restore normal brain function (Hawkins and Davis, 2005). VEGF is an endogenous protein known for its ability to promote angiogenesis and enhance vascular permeability. Under hypoxic conditions such as cerebral ischemia, VEGF expression is induced in neurons, astrocytes and endothelial cells via hypoxia-inducible factor-1 (HIF-1) (Breier and Risau, 1996). Once expressed, VEGF initiates both direct and indirect neuroprotective actions, inhibiting apoptosis, stimulating neurogenesis and angiogenesis, increasing glucose uptake and activating antioxidants (Gora-Kupilas and Josko, 2005). It has been shown that intracerebroventricular (i.c.v.) administration of an ETB receptor agonist in normal rats stimulates production of VEGF and activates VEGF receptors in the brain, while, in cultured astrocytes, this agonist increases VEGF-A mRNA as well as BrdU incorporation (Koyama et al., 2012; Koyama et al., 2011). ETB receptor agonist, IRL-1620, has been shown in our previous studies, to provide significant neuroprotection at both 24 hours and 1 week following permanent cerebral ischemia. […]

[2] = tested on: middle cerebral artery occluded rats; assay: Neurological deficit and motor function post middle cerebral artery occlusion; assay type: in vivo; conditions: for Distance Traveled (cm) / Foot Fault Error (%) / Grip Test (6 point scale) / Neurological Evaluation (6 point scale) / Rota Rod Duration / Vertical Breaks: MCAO rats
Procedure: Effect of IRL-1620 on neurological deficit following focal cerebral ischemia: In a preliminary study, the effect of selectively activating ETB receptors by IRL-1620 following permanent middle cerebral artery occlusion in rats was determined.

Row | Molecule | Distance Traveled (cm) ([2]; Baseline) | Foot Fault Error (%) ([2]; Baseline) | Grip Test (6 point scale) ([2]; Baseline) | Neurological Evaluation (6 point scale) ([2]; Baseline) | Rota Rod Duration ([2]; Baseline) | Vertical Breaks ([2]; Baseline) | Distance Traveled (cm) ([2]; Day 1) | Foot Fault Error (%) ([2]; Day 1) | Grip Test (6 point scale) ([2]; Day 1) | Neurological Evaluation (6 point scale) ([2]; Day 1) | Rota Rod Duration ([2]; Day 1) | Vertical Breaks ([2]; Day 1) | Distance Traveled (cm) ([2]; Day 4) | Foot Fault Error (%) ([2]; Day 4) | Grip Test (6 point scale) ([2]; Day 4) | Neurological Evaluation (6 point scale) ([2]; Day 4) | Rota Rod Duration ([2]; Day 4) | Vertical Breaks ([2]; Day 4) | Distance Traveled (cm) ([2]; Day 7) | Foot Fault Error (%) ([2]; Day 7) | further results
1 | CCCC[C@@H](NC(=O)[C@@H](Cc1cn(C(=O)OC)c2ccccc12)NC(=O)[C@H](CC(C)(C)C)NC(=O)N1[C@H](C)CCC[C@@H]1C)C(=O)O [BQ788, reference compound] | 5141 ± 285 cm | 5.96 ± 1.75% | 3.33 ± 0.33 | 0 ± 0 | 102.00 ± 5.14 s | 55.17 ± 3.74 | 1168 ± 417 cm | 52.12 ± 11.93*^@ % | 0.67 ± 0.33*^@ | 3.00 ± 0.58*^@ | 37.83 ± 20.87 s | 5.33 ± 2.47 | 1246 ± 410 cm | 68.89 ± 12.27*^@ % | 0.33 ± 0.24 | 3.33 ± 0.62*^@ | 37.67 ± 14.92 s | 4.33 ± 1.52 | 2280 ± 836 cm | 75.00 ± 17.67*^@ % | Effects of IRL-1620 treatment (neurovascular remodeling) ([1]; pretreatment with BQ-788): blocked; Grip Test (6 point scale) ([2]; Day 7): 1.67 ± 0.62; Neurological Evaluation (6 point scale) ([2]; Day 7): 3.00 ± 0.82*^@; Rota Rod Duration ([2]; Day 7): 49.67 ± 17.56 s; Vertical Breaks ([2]; Day 7): 11.00 ± 3.97
2 | Suc-Asp-Glu-Glu-Ala-Val-Tyr-Phe-Ala-His-Leu-Asp-Ile-Ile-Trp (Suc-DEEAVYFAHLDIIW) [IRL-1620] | 5073 ± 334 cm | 4.05 ± 1.31% | 3.86 ± 0.46 | 0 ± 0 | 113.29 ± 8.34 s | 61.50 ± 4.94 | 1611 ± 325 cm | 18.85 ± 6.48 % | 2.71 ± 0.52 | 1.29 ± 0.36 | 78.71 ± 22.59 s | 12.75 ± 4.76 | 2898 ± 451 cm | 14.00 ± 3.66 % | 2.33 ± 0.58 | 0.67 ± 0.22 | 97.33 ± 2.08 s | 26.33 ± 2.08 | 3472 ± 732 cm | 8.28 ± 1.09 % | Number of proliferating cells in the infarcted brain ([1]; 1 week after MCAO): increased number; VEGF-positive vessels/30 μm brain slice ([1]; 1 week following MCAO): 11.33±2.13; ETB receptor expression in cortex, striatum and SVZ ([1]; 24 hours post occlusion): increased; Neuronal numbers in cortex, striatum and SVZ ([1]; 24 hours post occlusion): preserved; Number of blood vessels labeled with VEGF ([1]; 24 hours post occlusion, vs vehicle treatment): enhanced; NGF-positive cells per 100 μm^2 ([1]; SVZ, 1 week after MCAO): 3.05±0.38 per 100 μm^2; NGF-positive cells per 100 μm^2 ([1]; cortex, 1 week after MCAO): 2.29±0.31 per 100 μm^2; NGF-positive cells per 100 μm^2 ([1]; striatum, 1 week after MCAO): 2.08±0.26 per 100 μm^2; Grip Test (6 point scale) ([2]; Day 7): 3.33 ± 0.22; Neurological Evaluation (6 point scale) ([2]; Day 7): 0.67 ± 0.22; Rota Rod Duration ([2]; Day 7): 123.67 ± 7.28 s; Vertical Breaks ([2]; Day 7): 34.33 ± 3.78; Neurological and motor function tests ([2]; preliminary study, 24 hours after permanent MCAO, vs vehicle-treated): significant improvement
